Literature values, collected in patent US20240139350A1, “RADIOACTIVELY LABELED LIGAND FOR FIBROBLAST ACTIVATION PROTEIN-ALPHA IMAGING AGENT AND PREPARATION METHOD THEREFOR” (FIVE ELEVEN PHARMA, INC, priority 2021, published 2024).

Key:
[1] = test system: FAP-positive tumor; settings: after 24 hours, relative to FAPI-02
[2] = coordination to Ga^3+
[3] = molecular target: T1, murine FAP (Mus musculus, UniProt P97321); settings: human embryonic kidney cells expressing mouse FAP
T1 construct: expressed in transfected cells; host or cells: human embryonic kidney cells
T1 sequence (P97321 1-761): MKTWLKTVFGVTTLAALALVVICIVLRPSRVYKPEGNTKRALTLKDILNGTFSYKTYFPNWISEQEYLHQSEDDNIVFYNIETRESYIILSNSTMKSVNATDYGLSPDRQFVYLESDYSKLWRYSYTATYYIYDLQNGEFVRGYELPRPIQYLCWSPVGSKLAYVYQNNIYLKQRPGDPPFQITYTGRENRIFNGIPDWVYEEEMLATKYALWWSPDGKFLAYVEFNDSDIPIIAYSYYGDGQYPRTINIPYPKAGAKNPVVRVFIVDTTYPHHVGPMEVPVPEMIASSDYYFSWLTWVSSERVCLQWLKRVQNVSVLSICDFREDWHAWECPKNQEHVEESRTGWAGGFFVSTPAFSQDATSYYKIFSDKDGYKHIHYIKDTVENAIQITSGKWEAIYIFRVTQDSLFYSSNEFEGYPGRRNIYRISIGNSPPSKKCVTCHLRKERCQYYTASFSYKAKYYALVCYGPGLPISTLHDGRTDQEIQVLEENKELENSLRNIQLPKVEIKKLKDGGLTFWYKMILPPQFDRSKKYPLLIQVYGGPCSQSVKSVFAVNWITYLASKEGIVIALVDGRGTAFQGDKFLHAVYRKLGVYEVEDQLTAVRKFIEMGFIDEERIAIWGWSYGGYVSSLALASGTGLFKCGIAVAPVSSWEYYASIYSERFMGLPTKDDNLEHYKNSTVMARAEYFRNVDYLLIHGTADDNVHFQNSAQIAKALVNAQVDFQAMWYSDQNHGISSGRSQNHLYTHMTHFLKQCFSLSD

[4] = molecular target: T2, dipeptidyl peptidase 4 (CD26) (Homo sapiens, UniProt P27487); settings: human embryonic kidney cells transfected with CD26
T2 construct: expressed in transfected cells; host or cells: human embryonic kidney cells
T2 sequence (P27487 whole entry, species assumed): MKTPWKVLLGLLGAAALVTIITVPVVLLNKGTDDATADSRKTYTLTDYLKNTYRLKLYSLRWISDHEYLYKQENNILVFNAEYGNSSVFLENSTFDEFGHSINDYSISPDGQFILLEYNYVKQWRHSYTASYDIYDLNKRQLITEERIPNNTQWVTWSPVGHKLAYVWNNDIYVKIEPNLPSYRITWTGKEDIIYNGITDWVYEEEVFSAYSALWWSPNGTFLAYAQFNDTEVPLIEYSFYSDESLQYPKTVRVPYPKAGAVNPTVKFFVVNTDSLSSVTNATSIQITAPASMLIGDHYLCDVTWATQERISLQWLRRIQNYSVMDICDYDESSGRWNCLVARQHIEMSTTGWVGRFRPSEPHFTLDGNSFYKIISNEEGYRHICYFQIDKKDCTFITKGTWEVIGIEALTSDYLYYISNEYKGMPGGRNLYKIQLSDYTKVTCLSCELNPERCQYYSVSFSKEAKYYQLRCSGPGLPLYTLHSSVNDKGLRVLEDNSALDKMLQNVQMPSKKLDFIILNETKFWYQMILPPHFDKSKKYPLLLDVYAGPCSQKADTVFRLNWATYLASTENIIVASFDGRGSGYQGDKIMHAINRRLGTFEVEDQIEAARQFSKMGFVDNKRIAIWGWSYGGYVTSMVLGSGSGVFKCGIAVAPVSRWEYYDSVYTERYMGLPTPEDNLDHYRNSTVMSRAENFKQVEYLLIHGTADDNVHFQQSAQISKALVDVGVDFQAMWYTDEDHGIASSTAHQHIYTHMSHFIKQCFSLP

Structure (SMILES)	thermodynamically stable constant log KML [2]	binding to murine FAP [3]	further results
N#C[C@@H]1CC(F)(F)CN1C(=O)CNC(=O)c1ccnc2ccc(OCCCN3CCN(C(=O)CN4CCN(CC(=O)O)CCN(CC(=O)O)CCN(CC(=O)O)CC4)CC3)cc12 (177Lu complex, metal not drawn) [FAPI-04]	–	–	effective tumor uptake higher than FAPI-02 [1]: 100%
CC1(N(CC(=O)O)CC(=O)O)CN(CC(=O)O)CCN(CC(=O)O)C1 [AAZTA]	22.18	–	–
O=C(O)CN1CCN(CC(=O)O)CCN(CC(=O)O)CCN(CC(=O)O)CC1 [DOTA]	21.3	–	–
N#C[C@@H]1CCCN1C(=O)CNC(=O)c1ccnc2ccc(OCCCN3CCN(C(=O)CN4CCN(CC(=O)O)CCN(CC(=O)O)CCN(CC(=O)O)CC4)CC3)cc12 [FAPI-02]	–	strong binding	–
N#C[C@@H]1CC(F)(F)CN1C(=O)CNC(=O)c1ccnc2ccc(OCCCN3CCN(C(=O)CN4CCN(CC(=O)O)CCN(CC(=O)O)CCN(CC(=O)O)CC4)CC3)cc12 [FAPI-04]	–	strong binding	binding to CD26 [4]: did not bind
O=C(O)CN1CCN(CC(=O)O)CCN(CC(=O)O)CC1 [NOTA]	31.0	–	–
